Reference: paper PMC5513037, “Examining the influence of specificity ligands and ATP-competitive ligands on the overall effectiveness of bivalent kinase inhibitors” (Proteome Science, 2017)

Assays:
Assay in all cases: KAM-matrix competition in K562 lysate;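 on 0.001 uM KAM: median log10 fold change of treatment over DMSO control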;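 on 0.01 uM KAM: median log10 fold change of treatment over DMSO control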;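 on 0.1 uM KAM: median log10 fold change of treatment over DMSO control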;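 on 1 uM KAM: median log10 fold change of treatment over DMSO control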;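 on 10 uM KAM: median log10 fold change of treatment over DMSO control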
Type in all cases: binding
CIT = target: T1, CIT (Homo sapiens, UniProt O14578);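 on 0.001 uM KAM: median log10 fold change of treatment over DMSO control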;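 on 0.01 uM KAM: median log10 fold change of treatment over DMSO control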;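 on 0.1 uM KAM: median log10 fold change of treatment over DMSO control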;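 on 1 uM KAM: median log10 fold change of treatment over DMSO control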;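 on 10 uM KAM: median log10 fold change of treatment over DMSO control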
T1 construct: endogenous in cells; host or cells: K562 lysate
T1 sequence (O14578 whole entry): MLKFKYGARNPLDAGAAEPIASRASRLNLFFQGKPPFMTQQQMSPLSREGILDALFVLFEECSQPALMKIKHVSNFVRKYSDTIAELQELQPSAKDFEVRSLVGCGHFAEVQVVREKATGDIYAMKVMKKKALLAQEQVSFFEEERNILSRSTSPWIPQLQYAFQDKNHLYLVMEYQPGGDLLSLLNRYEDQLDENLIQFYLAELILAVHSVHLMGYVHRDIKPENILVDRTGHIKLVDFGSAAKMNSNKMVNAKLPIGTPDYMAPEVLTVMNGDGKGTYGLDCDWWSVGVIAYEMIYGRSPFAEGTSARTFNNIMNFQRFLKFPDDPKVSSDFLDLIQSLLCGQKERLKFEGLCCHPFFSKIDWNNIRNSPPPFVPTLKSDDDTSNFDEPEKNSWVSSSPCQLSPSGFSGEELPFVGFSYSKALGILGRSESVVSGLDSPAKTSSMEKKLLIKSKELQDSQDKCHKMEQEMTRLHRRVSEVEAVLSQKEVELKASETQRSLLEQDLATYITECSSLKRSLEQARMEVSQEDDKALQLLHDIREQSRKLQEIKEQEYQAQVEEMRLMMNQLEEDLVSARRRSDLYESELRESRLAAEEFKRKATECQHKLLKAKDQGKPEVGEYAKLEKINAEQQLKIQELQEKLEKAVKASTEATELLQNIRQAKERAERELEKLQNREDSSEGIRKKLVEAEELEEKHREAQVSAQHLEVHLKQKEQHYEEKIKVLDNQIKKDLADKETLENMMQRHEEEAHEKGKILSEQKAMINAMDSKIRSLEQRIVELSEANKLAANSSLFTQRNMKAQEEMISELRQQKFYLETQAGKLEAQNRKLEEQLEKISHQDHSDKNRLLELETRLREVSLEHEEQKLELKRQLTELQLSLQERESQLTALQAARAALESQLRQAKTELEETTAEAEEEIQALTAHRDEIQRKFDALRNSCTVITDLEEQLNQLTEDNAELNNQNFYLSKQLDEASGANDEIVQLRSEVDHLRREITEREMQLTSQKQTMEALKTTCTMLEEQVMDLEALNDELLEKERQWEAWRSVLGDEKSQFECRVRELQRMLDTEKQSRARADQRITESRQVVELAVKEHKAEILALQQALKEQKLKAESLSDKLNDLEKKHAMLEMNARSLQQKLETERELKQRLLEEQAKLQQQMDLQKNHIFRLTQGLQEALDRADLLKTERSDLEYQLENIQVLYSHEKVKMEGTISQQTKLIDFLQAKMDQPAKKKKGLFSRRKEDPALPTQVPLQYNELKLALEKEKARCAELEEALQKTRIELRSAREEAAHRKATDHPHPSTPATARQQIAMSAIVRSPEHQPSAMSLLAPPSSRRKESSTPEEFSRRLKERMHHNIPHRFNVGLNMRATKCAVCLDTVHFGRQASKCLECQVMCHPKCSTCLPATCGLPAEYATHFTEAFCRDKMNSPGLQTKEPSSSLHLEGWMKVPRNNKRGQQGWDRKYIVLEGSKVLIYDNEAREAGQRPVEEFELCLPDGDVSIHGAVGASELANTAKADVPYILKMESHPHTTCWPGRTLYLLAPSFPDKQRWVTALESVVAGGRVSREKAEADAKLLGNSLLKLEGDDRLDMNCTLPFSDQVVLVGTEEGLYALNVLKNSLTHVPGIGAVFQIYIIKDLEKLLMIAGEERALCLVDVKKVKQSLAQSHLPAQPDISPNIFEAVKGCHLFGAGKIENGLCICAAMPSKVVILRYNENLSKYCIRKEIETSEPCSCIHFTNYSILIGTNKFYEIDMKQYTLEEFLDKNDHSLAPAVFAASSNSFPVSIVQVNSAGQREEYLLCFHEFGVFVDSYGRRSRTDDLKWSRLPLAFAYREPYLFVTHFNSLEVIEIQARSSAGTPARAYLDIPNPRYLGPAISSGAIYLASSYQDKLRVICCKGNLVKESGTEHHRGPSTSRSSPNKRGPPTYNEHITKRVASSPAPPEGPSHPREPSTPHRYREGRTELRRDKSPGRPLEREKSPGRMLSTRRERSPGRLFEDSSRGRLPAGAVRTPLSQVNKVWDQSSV
Description: (§1) Supplement 12953_2017_125_MOESM1_ESM.zip/MS_Supp Info.xlsx, sheet "KAM" | column: 10 uM KAM; 1 uM KAM; 0.1 uM KAM; 0.01 uM KAM; 0.001 uM KAM; RB50

GUCY2F = target: T2, GUCY2F (Homo sapiens, UniProt P51841);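 on 0.001 uM KAM: median log10 fold change of treatment over DMSO control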;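 on 0.01 uM KAM: median log10 fold change of treatment over DMSO control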;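 on 0.1 uM KAM: median log10 fold change of treatment over DMSO control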;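 on 1 uM KAM: median log10 fold change of treatment over DMSO control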;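 on 10 uM KAM: median log10 fold change of treatment over DMSO control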
T2 construct: endogenous in cells; host or cells: K562
T2 sequence (P51841 51-1108): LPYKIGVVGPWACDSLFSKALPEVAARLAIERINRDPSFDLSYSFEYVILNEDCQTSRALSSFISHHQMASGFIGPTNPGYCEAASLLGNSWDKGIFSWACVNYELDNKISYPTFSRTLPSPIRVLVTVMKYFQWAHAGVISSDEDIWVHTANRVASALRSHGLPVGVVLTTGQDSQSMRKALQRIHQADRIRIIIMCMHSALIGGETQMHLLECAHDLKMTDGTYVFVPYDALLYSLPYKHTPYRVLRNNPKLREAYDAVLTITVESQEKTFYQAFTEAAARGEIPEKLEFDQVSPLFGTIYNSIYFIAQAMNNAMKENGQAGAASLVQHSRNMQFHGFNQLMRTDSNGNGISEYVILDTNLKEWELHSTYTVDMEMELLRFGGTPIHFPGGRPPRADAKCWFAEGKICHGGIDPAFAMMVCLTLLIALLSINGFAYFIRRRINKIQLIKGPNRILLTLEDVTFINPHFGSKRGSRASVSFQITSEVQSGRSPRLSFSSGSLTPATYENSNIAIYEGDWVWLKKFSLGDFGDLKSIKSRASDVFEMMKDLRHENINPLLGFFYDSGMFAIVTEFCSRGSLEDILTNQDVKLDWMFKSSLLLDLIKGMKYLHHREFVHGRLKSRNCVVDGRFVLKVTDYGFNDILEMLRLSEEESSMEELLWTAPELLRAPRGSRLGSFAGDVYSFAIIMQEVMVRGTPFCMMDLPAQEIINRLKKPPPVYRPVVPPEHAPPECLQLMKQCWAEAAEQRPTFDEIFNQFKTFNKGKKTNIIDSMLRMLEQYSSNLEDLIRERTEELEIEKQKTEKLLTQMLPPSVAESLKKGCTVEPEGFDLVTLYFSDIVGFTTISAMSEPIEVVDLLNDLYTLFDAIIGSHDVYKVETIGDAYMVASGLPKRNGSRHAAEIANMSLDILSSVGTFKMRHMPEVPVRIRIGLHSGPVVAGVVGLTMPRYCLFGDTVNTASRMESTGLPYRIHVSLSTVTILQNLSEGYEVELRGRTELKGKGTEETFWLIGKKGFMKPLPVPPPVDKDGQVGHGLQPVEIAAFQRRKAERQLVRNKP
Description: as §1

FAM20B = target: T3, FAM20B (Homo sapiens, UniProt O75063);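 on 0.001 uM KAM: median log10 fold change of treatment over DMSO control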;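 on 0.01 uM KAM: median log10 fold change of treatment over DMSO control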;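 on 0.1 uM KAM: median log10 fold change of treatment over DMSO control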;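 on 1 uM KAM: median log10 fold change of treatment over DMSO control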;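 on 10 uM KAM: median log10 fold change of treatment over DMSO control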
T3 construct: endogenous in cells; host or cells: K562
T3 sequence (O75063 1-409): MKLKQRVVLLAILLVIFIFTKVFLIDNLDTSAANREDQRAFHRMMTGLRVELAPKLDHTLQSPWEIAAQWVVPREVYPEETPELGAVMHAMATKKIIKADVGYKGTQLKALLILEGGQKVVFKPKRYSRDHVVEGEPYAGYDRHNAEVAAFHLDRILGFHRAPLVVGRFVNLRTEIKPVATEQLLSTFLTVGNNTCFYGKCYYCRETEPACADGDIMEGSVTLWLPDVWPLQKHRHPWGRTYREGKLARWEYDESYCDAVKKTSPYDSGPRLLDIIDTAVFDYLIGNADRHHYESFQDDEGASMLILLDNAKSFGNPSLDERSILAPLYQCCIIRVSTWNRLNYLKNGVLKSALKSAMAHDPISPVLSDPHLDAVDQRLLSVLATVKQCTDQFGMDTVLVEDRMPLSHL
Description: as §1

HUNK = target: T4, HUNK (Homo sapiens, UniProt P57058);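 on 0.001 uM KAM: median log10 fold change of treatment over DMSO control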;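 on 0.01 uM KAM: median log10 fold change of treatment over DMSO control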;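 on 0.1 uM KAM: median log10 fold change of treatment over DMSO control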;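 on 1 uM KAM: median log10 fold change of treatment over DMSO control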;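 on 10 uM KAM: median log10 fold change of treatment over DMSO control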
T4 construct: endogenous in cells; host or cells: K562
T4 sequence (P57058 1-714): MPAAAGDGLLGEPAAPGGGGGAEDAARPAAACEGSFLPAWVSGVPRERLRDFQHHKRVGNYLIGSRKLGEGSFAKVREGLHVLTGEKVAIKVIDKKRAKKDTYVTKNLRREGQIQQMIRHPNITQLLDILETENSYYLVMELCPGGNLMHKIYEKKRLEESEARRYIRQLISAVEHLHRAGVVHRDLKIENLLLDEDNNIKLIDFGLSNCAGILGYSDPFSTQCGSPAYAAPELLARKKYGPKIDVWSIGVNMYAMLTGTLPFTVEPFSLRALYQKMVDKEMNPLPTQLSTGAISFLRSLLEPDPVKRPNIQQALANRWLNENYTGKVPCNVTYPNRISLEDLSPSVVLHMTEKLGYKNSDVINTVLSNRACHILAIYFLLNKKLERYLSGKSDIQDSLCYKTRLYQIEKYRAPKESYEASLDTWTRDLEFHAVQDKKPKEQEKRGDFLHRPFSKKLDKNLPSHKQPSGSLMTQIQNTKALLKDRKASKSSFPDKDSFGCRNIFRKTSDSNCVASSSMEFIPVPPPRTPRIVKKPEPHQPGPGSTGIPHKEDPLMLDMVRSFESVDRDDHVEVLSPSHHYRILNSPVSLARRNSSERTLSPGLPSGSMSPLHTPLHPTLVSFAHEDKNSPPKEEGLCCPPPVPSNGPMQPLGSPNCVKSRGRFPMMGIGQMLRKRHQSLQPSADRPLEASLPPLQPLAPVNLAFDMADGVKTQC
Description: as §1

[1] = KAM 0.001-10 uM, read-out: RB50 (the source's name)

N#CCc1ccc(Nc2nc(NCCCN)cc(Nc3cc(C4CC4)[nH]n3)n2)cc1 [KAM]
IC50 (CIT; [1]): > 10 µM
0.001 uM KAM (CIT; relative to 0 uM KAM = 0): -0.03357
0.01 uM KAM (CIT; relative to 0 uM KAM = 0): -0.05687
0.1 uM KAM (CIT; relative to 0 uM KAM = 0): -0.1025
1 uM KAM (CIT; relative to 0 uM KAM = 0): -0.03677
10 uM KAM (CIT; relative to 0 uM KAM = 0): -0.04946
IC50 (GUCY2F; [1]): > 10 µM
0.001 uM KAM (GUCY2F; relative to 0 uM KAM = 0): -0.02463
0.01 uM KAM (GUCY2F; relative to 0 uM KAM = 0): -0.02113
0.1 uM KAM (GUCY2F; relative to 0 uM KAM = 0): 0.03818
1 uM KAM (GUCY2F; relative to 0 uM KAM = 0): 0.1179
10 uM KAM (GUCY2F; relative to 0 uM KAM = 0): -0.02163
IC50 (FAM20B; [1]): > 10 µM
0.001 uM KAM (FAM20B; relative to 0 uM KAM = 0): -0.03245
0.01 uM KAM (FAM20B; relative to 0 uM KAM = 0): -0.03308
0.1 uM KAM (FAM20B; relative to 0 uM KAM = 0): -0.01554
1 uM KAM (FAM20B; relative to 0 uM KAM = 0): -0.05098
10 uM KAM (FAM20B; relative to 0 uM KAM = 0): 0.1003
IC50 (HUNK; [1]): > 10 µM
0.001 uM KAM (HUNK; relative to 0 uM KAM = 0): 0.08544
0.01 uM KAM (HUNK; relative to 0 uM KAM = 0): 0.04291
0.1 uM KAM (HUNK; relative to 0 uM KAM = 0): 0.1545
1 uM KAM (HUNK; relative to 0 uM KAM = 0): 0.0644
10 uM KAM (HUNK; relative to 0 uM KAM = 0): 0.1031
